One assay has as its system CD4 T cells. As to the kind of experiment: In vitro differentiation of CD4 T cells (Treg / IFNg-YFP Teff), flow cytometry. In kind it is cell-based, mouse. Particulars: for Concentration with Maximum Effect on IFN -YFP: tested concentration with maximum effect, six days culture. From the text: FIG. 4. Effects of Mito10-HU on in vitro differentiation of CD4 T cells (A) The gating strategy reflects data from one DMSO control sample. First, the total population of cells was gated (FSC-A vs SSC-A). Then, single cells were gated (SSC-W vs SSC-H). Within the single cell population, we gated on the live CD4 T cells using a fixable LIVE/DEAD stain (CD4 vs DEAD). Within the live CD4 T cells we gated on CD25+FOXP3+Tregs (FOXP3 vs CD25), as well as IFNg-YFP+CD4 T cells (IFNg-YFP vs CD4). (B) Live CD4 T cells were gated within the single cell populations, at varying concentrations of Mito10-HU, along with DMSO controls (B, top row). CD25+FOXP3+Tregs (B, middle row) and IFNg-YFP+CD4 T cells (B, bottom row) were gated within the live CD4 T cell populations, at varying concentrations of Mito10-HU, along with DMSO controls. (C) Effects of Mito10-HU on live CD4+T cells within the lymphocyte gate (C, left), the frequency of FOXP3+CD25+cells within the live CD4+T cells (C, middle), and Teff function is shown as the frequency of IFNg-YFP positive cells within the live CD4+T cells (C, right). Data shown are the means & SD, n=2 per treatment group. *p<0.05, **p<0.01 vs control.
To differentiate CD4^+ T cells into a Treg phenotype, splenocytes from SMARTA triple-reporter mice were processed and the red blood cells were lysed using an ACK (ammonium-chloride-potassium) lysis buffer. The cells were then activated with […] GP61-80 peptide (GenScript, Piscataway, NJ) and 5 ng/mL TGF-b1 (Shenandoah Biotechnology, Inc., Warwick, PA). After one day of initial skewing, […] IL-2 along with HU or Mito-HUs (n=4-20) of varying concentrations were added to the culture. Cells were cultured for six days and split once cells reached confluency; cells were replenished with IL-2 and compound (i.e., MitoHUs) accordingly. After six days in culture, cells were stained to assess the viability and phenotypic analysis via flow cytometry. LIVE/DEAD fixable violet or aqua dead cell stain (Invitrogen) was used to assess cell viability. Only live cells were gated out for further functional analysis by using a fixable LIVE/DEAD stain. First, total population of cells was gated (FSC-A vs SSC-A). Then, single cells were gated (SSC-W vs SSC-H). Within the single cell population, we gated on the live CD4 T cells using a fixable Live/Dead stain (CD4 vs DEAD). Within the live CD4 T cells, we gated on CD25^+FOXP3^+ Tregs (FOXP3 vs CD25), as well as IFNg-YFP^+ CD4 T cells (IFNg-YFP vs CD4).
The following antibodies were used for flow cytometry staining: APC-Cy7 anti-mouse CD4 (clone: GK1.5; BioLegend, San Diego, CA), APC anti-mouse CD25 (clone: PC61; BioLegend), and PE anti-mouse FOXP3 (clone: FJK-165; eBioscience, San Diego, CA). Flow cytometry data were acquired using a BD Celesta flow cytometer (BD Biosciences, San Jose, CA) flow cytometer and analyzed using FlowJo (Treestar, Inc., Ashland, OR) (FlowJo Software, 2019).

The test system of assay [1] is HCT116 human colon cancer cells. Put plainly: Cell proliferation (cell confluence), IncuCyte Live-Cell Analysis system. In kind it is cell-based. Particulars: for IC50: Homo sapiens, at ~90% confluence of control; for Cell Confluence (%): when control cells reached ~90% confluence, n = 4. From the text:
FIG. 1. Effects of HU and Mito-HUs on proliferation of HCT116 human colon cancer cells (A) Effects of HU and Mito-HUs on the proliferation of HCT116 cells were monitored in the IncuCyte Live-Cell Analysis system. The IncuCyte Analyzer provides real-time updates on cell confluence, based on segmentation of high definition-phase contrast images. Representative cell images were shown as segmentation mask illustrated in brown when control cells reached 90% confluence (vertical solid black line). (B) The IC50 values were determined at the point at which control cells reached ˜90% confluence (vertical solid black line). Relative cell confluence (control is taken as 100%) is plotted against concentration. Dashed lines represent the fitting curves used to determine the IC50 values as indicated. Data shown are the means & SD.
The following cell lines were obtained from the American Type Culture Collection (Manassas, VA), where they were regularly authenticated: HCT116 (ATCC Cat #CRL-247, human colon cancer cells) and MiaPaCa-2 (ATCC Cat #CRL-1420, human pancreatic cancer cells). All cells were cultured in a humidified incubator at 37° C. and 5% carbon dioxide. HCT116 cells were maintained in RPMI 1640 medium (Thermo Fisher Scientific, Cat #11875), supplemented with 10% fetal bovine serum. MiaPaCa-2 cells were maintained in Dulbecco's Modified Eagle Medium (Thermo Fisher Scientific, Waltham, MA; Cat #11965) supplemented with 10% fetal bovine serum. All cells were stored in liquid nitrogen and used within 20 passages after thawing.
The IncuCyte Live-Cell Analysis system (Essen Bioscience Inc., Ann Arbor, MI) was used to monitor cell proliferation (Cheng et al., 2013, 2016; Boyle et al., 2018). As shown in previous publications (Cheng et al., 2013, 2016), this imaging system is probe-free and noninvasive, and enables continuous monitoring of cell confluence over several days. The increase in the percentage of cell confluence was used as a surrogate marker of cell proliferation. In a 96-well plate, cells were plated at 1,000 cells per well in triplicates and left to adhere overnight. Cells were then treated with HU and Mito-HUs, and the cell confluency was recorded over several days in the IncuCyte Live-Cell Analysis system.

Setting [2] is: HCT-116, HCT116, read-out: IC50 proliferation of HCT116 cells.
[3] abbreviates: HCT-116, mean ± SD, HCT116, read-out: IC50 Cell Proliferation (FIG. 1).

Consider six compounds from patent US20240109925A1, “Enhanced Anti-Proliferative and Antitumor Immune Effects of Mitochondria-Targeted Hydroxyurea” (The Medical College of Wisconsin, Inc., priority 2021, published 2024).

Where two headings read alike, the source gives them in different places.

`NC(=O)NOCCCCCCCCCCCCCCCC[P+](c1ccccc1)(c1ccccc1)c1ccccc1.O=C([O-])C(F)(F)F` [Mito16-HU, 16-[(carbamoylamino)oxy]-hexadecyltriphenylphosphonium trifluoroacetate]: the “Concentration with Maximum Effect on IFN -YFP” value (shortened to “Concentration … -YFP”) in the assay with CD4 T cells was 0.4 µM. In addition, the “inhibition of proliferation of HCT116 cells” value (from here on “inhibition … of HCT116 cells”) in assay [1] (HCT116) is on record as “dose-dependently inhibited proliferation”. Further, the IC50 amounted to 510 nM in assay [1] (setting [2]) and 500 ± 10 nM in assay [1] (setting [3]).

With `NC(=O)NOCCCCCCCCCCCC[P+](c1ccccc1)(c1ccccc1)c1ccccc1.O=C([O-])C(F)(F)F` [Mito12-HU, 12-[(carbamoylamino)oxy]-dodecyltriphenylphosphonium trifluoroacetate], in the assay with CD4 T cells, the “Concentration … -YFP” value came out at 10 µM. Further, the “inhibition … of HCT116 cells” value in assay [1] (HCT116) is “dose-dependently inhibited proliferation”. Further, the values for the IC50 in assay [1] (setting [2]) and in assay [1] (setting [3]) were 1800 nM and 1800 ± 50 nM, respectively.

In the case of `NC(=O)NO` [HU, Hydroxyurea], the “Concentration … -YFP” value with CD4 T cells is 200 µM. The “Cell Confluence (%)” value in assay [1] (10 μM) came to 89.91%; in assay [1] (30 μM), 91.61%; in assay [1] (100 μM) it was 66.96%; in assay [1] (150 μM), 48.62%; in assay [1] (200 μM), 31.90%; in assay [1] (250 μM) it was 22.99%. For the same compound, the “Cell Confluence (%)” value in assay [1] (300 μM) was determined as 17.30%; in assay [1] (400 μM), 11.42%; in assay [1] (500 μM), 8.79%; in assay [1] (1000 μM), 5.40%; in assay [1] (3000 μM), 3.43%. Besides, the IC50 in assay [1] (setting [3]) was 180000 ± 6700 nM.

As to `NC(=O)NOCCCCCCCCCCCCCCCCCCCC[P+](c1ccccc1)(c1ccccc1)c1ccccc1.O=C([O-])C(F)(F)F` [Mito20-HU, 20-[(carbamoylamino)oxy]-eicosanyltriphenylphosphonium trifluoroacetate], in the assay on CD4 T cells (IFNg-YFP), the “lowest concentration with maximal effect on Teff activation” value stood at 0.3 mM. Also, the “Concentration … -YFP” value in the assay on CD4 T cells came to 0.3 µM. In assay [1] (HCT116), the “inhibition … of HCT116 cells” value is recorded as “dose-dependently inhibited proliferation”. The results for the IC50 in assay [1] (setting [2]) and in assay [1] (setting [3]) were 230 nM and 230 ± 20 nM, respectively.

In the case of `NC(=O)NOCCCCCCCCCCCCCC[P+](c1ccccc1)(c1ccccc1)c1ccccc1.O=C([O-])C(F)(F)F` [Mito14-HU, 14-[(carbamoylamino)oxy]-tetradecyltriphenylphosphonium trifluoroacetate], the “Concentration … -YFP” value with CD4 T cells came out at 1.5 µM. Besides, the “inhibition … of HCT116 cells” value in assay [1] (HCT116) is given as “dose-dependently inhibited proliferation”. Also, the values for the IC50 in assay [1] (setting [2]) and in assay [1] (setting [3]) were 740 nM and 900 ± 40 nM, respectively.

`NC(=O)NOCCCCCCCCCC[P+](c1ccccc1)(c1ccccc1)c1ccccc1.O=C([O-])C(F)(F)F` [Mito10-HU, 10-[(carbamoylamino)oxy]-decyltriphenylphosphonium trifluoroacetate]: in the assay with CD4 T cells (six days), the “FOXP3+ Treg differentiation” value is “inhibited FOXP3^+ Treg differentiation and/or survival”. Also, in the assay on CD4 T cells (six days), the “Teff IFNg production” value is on record as “promoted Teff IFNg production”. Moreover, in the assay on CD4 T cells, the “Concentration … -YFP” value came to 12.5 µM. The “Cell Confluence (%)” value in assay [1] (0.1 μM) turned out to be 82.13%; in assay [1] (0.3 μM) it was 84.69%; in assay [1] (1 μM) it was 83.91%; in assay [1] (3 μM), 64.31%; in assay [1] (5 μM), 67.01%; in assay [1] (10 μM), 26.84%. Moreover, the “Cell Confluence (%)” value is on record as 13.75% in assay [1] (12.5 μM); 8.68% in assay [1] (15 μM); 3.45% in assay [1] (20 μM); 1.74% in assay [1] (30 μM); 1.53% in assay [1] (100 μM). Also, the “inhibition … of HCT116 cells” value in assay [1] (HCT116) is “dose-dependently inhibited proliferation”. Moreover, the IC50 is 8000 nM in assay [1] (setting [2]) and 8500 ± 410 nM in assay [1] (setting [3]). Besides, in assay [1] (Mito10-HU (5 μM) together with AZD-3965 (100 μM), HCT-116), the “inhibition of cell proliferation, combination with AZD-3965” value is recorded as “synergistically inhibited”. For the same compound, the “inhibition of cell proliferation, combination with syrosingopine (combination index)” value in assay [1] (Mito10-HU (5 μM) together with syrosingopine (7.5 μM), HCT116) is “synergistic”.
